One data set deals with hypertensive person. Nature of the data set: double-blind single-patient trial of sustained release verapamil vs sustained release propranolol. The data set is classed as in vivo, human. The following applies: for mean systolic blood pressure increases: verapamil 240 mg once daily vs propranolol 180 mg once daily; for mean systolic blood pressure increases / mean diastolic pressure: little difference between drugs; for mean diastolic pressure: throughout the six week trial. On the procedure:
In this example, the validity of using a sustained release formulation of verapamil 240 mg once daily as a therapeutic alternative to sustained release propranolol 180 mg once daily in a hypertensive person is shown. The trial during which the two medications are randomly administered in a double-blind manner is six weeks. The questionnaire used is set up in a manner similar to that described in above examples except that the questions elicit information related to the disease of hypertension. Blood pressure and adverse event reports are taken daily by the patient. […] Sleepiness is reported at equal rates for both drugs. All values are statistically insignificant and the therapeutic alternative selection is objectively validated.

The next data set deals with individual patient. Nature of the data set: SPAS single-patient abuse potential test (liking score). Particulars: for difference of liking score vs placebo: drug minus placebo; for liking score: on drug, codeine: person, diazepam: person, nicotine: person, on average. The procedure:
Single-patient drug kits can be designed to test for “liking scores,” “abuse potential scores,” and patient's desire to re-use the test article compared to placebo and positive controls.
In this example, the abuse potential of the narcotic analgesic codeine is tested. A single-patient trial is conducted in a patient for whom treatment with codeine is deemed appropriate. The patient receives a SPAS test kit containing codeine, an alternative drug, e.g., ibuprofen and a questionnaire designed to elicit the liking score, desirability to re-use test article and abuse potential of the patient to codeine.
In another example, in follow-up to the test above, the clinician compares diazepam to secobarbital in the same patient.

In data set [1] the test system is previously tested patients. As to the kind of experiment: follow-up of previously tested similar patients for addiction / smoking. Particulars: for level of addiction on follow-up of similar patients: human, in vivo.
The next data set has as its system hyperactive child. As to the kind of experiment: single-patient drug trial of methylphenidate vs placebo (SPAS kit, parent/school questionnaires). The format is in vivo, human. On the procedure:
The usefulness of methylphenidate (Ritalin) treatment in a hyperactive child (Minimum Brain Dysfunction or Attention Deficit Disorder) is evaluated.
Consists of instructions, “calendar” packaging for drug and a substantially identical looking placebo to assure appropriate dosing and monitoring of compliance, questionnaires and assessment forms and instructions. Completed forms are sent to a neutral observer who has previously assigned the randomized, multiple-crossover schedule of drug and placebo periods. Only the observer has access to when active drug and placebo are taken and only the observer analyzes the data (exception: open-label or single-blind trials). Results are mailed to the physician and, in this case, parent for use in evaluating the usefulness of the therapy. The physician and parent are contacted, e.g., every three months to provide data on therapies utilized, and perceived outcome, until the condition is resolved. The data is also added to a post-marketing surveillance database for use in evaluating future individual study results, and for access by drug companies, regulatory agencies, and health care organizations.
The questionnaire portion of the kit includes an initial consent form for the parent or guardian to complete. The questionnaire also provides background information on the study and possible side effects associated with the medication. Also included therein is a form for providing relevant patient and family histories. More importantly, the questionnaire, in this case includes a portion for the weekly input by parents/guardians and school observers for answers to questions relating to the drug evaluation. Physician questionnaires are similarly arranged.
The kit described in Example 1 is used to again evaluate the usefulness of methylphenidate (Ritalin) treatment in a hyperactive child except that all interested parties have the benefit of a set of data generated from a pool of patients having a similar need for treatment. […]

Data set [2] concerns patients with the same disorder (hyperactive child). Nature of the data set: pooled SPAS database and follow-up of patients continued on methylphenidate 40 mg daily. The data set is classed as in vivo, human. The procedure:
All results obtained from the data are compared against the results provided by data amassed from a pool of about 200 patients with the same disorder. If, of these 200 patients, 55 experience encouraging results (along with the current patient) they are continued on 40 mg daily treatment. If, of these 55 patients, 5 are lost to follow-up, with 50 remaining for prospective evaluation, the physician continues the patient on 40 mg methylphenidate daily based solely on the isolated SPAS single-patient drug trial results. The physician then reviews the pooled data on the 50 patients. This will be done to understand under what circumstances this individual patient is likely to continue to show benefit from methylphenidate 40 mg treatment, and what conditions lead to treatment failure.
If for example, the pool of 50 patients who continue treatment have the following scores following the original SPAS testing:
All 50 patients are followed up by telephone interview monthly for nine months or more, and outcomes are prospectively documented.

Data set [3] has as its system patient with perennial allergic rhinitis. Particulars: for incidence of sedation: day 4 of treatment.
Data set [4] deals with patients with allergic rhinitis. As to the kind of experiment: database follow-up of similar patients placed on CM. The format is in vivo, human. Particulars: year long follow-up. On the procedure:
It is determined that they are a candidate for the individual patient formulary management control system. They are considered a candidate because there are similar patients, e.g. 50, in the database, and 40 of them are placed on CM rather than CL based upon the outcome of single-patient drug trials. […] If CL is found to be more acceptable considering the safety, effectiveness and desirability data of the individual patient questionnaire, the co-pay is the same low rate as for CM.

[5] abbreviates: pool of 50 patients who continue treatment.

Where a name gives a salt, the structure may show the parent alone.

As for `CC(C)NCC(O)COc1cccc2ccccc12` (stereo not shown) [propranolol], the sleepiness reported result with hypertensive person (human, in vivo) is “equal rates”. For the same compound, the “mean systolic blood pressure increases” value in the data set with hypertensive person (six week trial) stood at 3%. In addition, the mean diastolic pressure result with hypertensive person is listed as “essentially stable”.

As to `CN1C(=O)CN=C(c2ccccc2)c2cc(Cl)ccc21` [diazepam], in the data set on individual patient, the “difference of liking score vs placebo” value is given as 0 units and the liking score is on record as 4 out of 5. For the same compound, the “level of addiction on follow-up of similar patients” value in data set [1] is recorded as “comparatively low level of addiction”.

In the case of `COC(=O)C(c1ccccc1)C1CCCCN1` (stereo not shown) [methylphenidate], the “patient's attention span” value in the data set with hyperactive child (40 mg daily as 10 mg four times daily, periods when methylphenidate is given vs placebo) is recorded as “improved substantially”. Besides, the teacher comments result in the data set with hyperactive child (during methylphenidate dosing periods) is listed as “corroborate improved attention span”. Also, the sleep patterns result in the data set on hyperactive child (during methylphenidate periods, 40 mg daily) is “statistically altered”. Besides, the “show severe episodes of bizarre behaviors” value in data set [2] (patients with statistically altered sleep patterns on SPAS testing, within two months) is 90%. The “patients experience grand mal seizures” value in data set [2] (patients with statistically altered sleep patterns, within two months) was “two”. In addition, in data set [2] (setting [5]), the “Sleep Patterns: have been statistically altered” value was found to be 50%, the “Sleep Patterns: have not been statistically altered” value came to 50%, the “Teacher Comments: corroborate improved attention span” value is listed as 80% and the “Teacher Comments: do not corroborate improved attention span” value is reported as 20%. Moreover, the “Attention Span: have substantial improvement” value in data set [2] (pool of 50 patients who continue treatment, 40 mg daily) was determined as 100%.

On to `CN1CCCC1c1cccnc1` (stereo not shown) [nicotine], for which, in the data set on individual patient, the “difference of liking score vs placebo” value was determined as 3 units and the liking score is recorded as 4 out of 5. In addition, the are smokers in data set [1] (female Caucasian patients 15 to 17 years old with similar 3-unit difference) was 820 out of 975.

For `C=CCC1(C(C)CCC)C(=O)NC(=O)NC1=O` (stereo not shown) [secobarbital], the “difference in liking scores, diazepam compared to secobarbital” value in the data set with individual patient (same patient) is on record as “greater addiction potential”. Also, the “level of addiction on follow-up of similar patients” value in data set [1] is given as “high level of addiction”.

`COc1ccc2c3c1O[C@H]1[C@@H](O)C=C[C@H]4[C@@H](C2)N(C)CC[C@@]341` [codeine]: in the data set on individual patient, the “difference of liking score vs placebo” value stood at 2 units. Also, in the data set with individual patient, the liking score is 3 out of 5. Also, the became addicted is on record as 10 out of 1250 in data set [1] (Caucasian female patients 30 to 40 years with 0 unit difference); 25 out of 600 in data set [1] (black male patients 40 to 50 years old with 2-unit difference, treated with codeine); 50 out of 110 in data set [1] (similar patients with 3 unit differences).

For the compound `CCOC(=O)N1CCC(=C2c3ccc(Cl)cc3CCc3cccnc32)CC1` [CL, loratidine], in data set [3], the incidence of sedation is recorded as 2 on a 3 point scale.

As for `COc1ccc(CCN(C)CCCC(C#N)(c2ccc(OC)c(OC)c2)C(C)C)cc1OC` (stereo not shown) [verapamil], the sleepiness reported entry in the data set with hypertensive person (six week trial, both drugs) is “equal rates”. For the same compound, in the data set with hypertensive person (six week trial), the “mean systolic blood pressure increases” value is on record as 3%. The mean diastolic pressure entry in the data set on hypertensive person was “essentially stable”.

Turning to `CN(C)CCC(c1ccc(Cl)cc1)c1ccccn1` (stereo not shown) [CM, chlorpheniramine maleate], the patients well maintained in data set [4] was 37 of the 40. In addition, the “patient's symptoms on reevaluation” value in data set [3] (6 and 12 months post-initiation of CM treatment) was “well maintained”. In data set [3], the incidence of sedation amounted to 2 on a 3 point scale. In addition, the “most bothersome symptom, sneezing” value in data set [3] (person, dust mite protein allergy) is “similarly and effectively controlled”.

For the origin of these results see patent publication US20020032581A1, “Single-patient drug trials used with accumulated database: risk of habituation” (priority 2000, published 2002).
